# Measurements as given in patent US20080200533A1, “Drug or Pharmaceutical Compounds and a Preparation Thereof” (priority 2005, published 2008).
# Like-named read-outs stand apart in the source and are kept apart here.
# Key:
# [1] = oral; cited from earlier work
# [2] = Experimental: 1 gram mole equivalent of (S)-2,6-diaminohexanoic acid is added to the above ethyl acetate solution and stirred at ambient room temperature.
# [3] = cited from earlier work
# CYP3A4 = settings: cited from earlier work
structure (smiles),measurement,setting,value
"CC(C)c1c(C(=O)Nc2ccccc2)c(-c2ccccc2)c(-c2ccc(F)cc2)n1CC[C@@H](O)C[C@@H](O)CC(=O)O (relative stereo) [atorvastatin, [R—(R*,R*)]-2-(4-fluorophenyl)-β,δ-dihydroxy-5-((1-methylethyl)-3-phenyl-4-[(phenylamino)-carbonyl]-1H-pyrrole-1-heptanoic acid]",orally administered drug absorbed from the intestine,[1],about 30%
CC(C)c1nc(N(C)S(C)(=O)=O)nc(-c2ccc(F)cc2)c1/C=C/[C@@H](O)C[C@@H](O)CC(=O)O [Rosuvastatin acid],solubility in water (in words),[2],water insoluble
CC[C@H](CC[C@@H](C)[C@H]1CC[C@H]2[C@@H]3CC=C4C[C@@H](O)CC[C@]4(C)[C@H]3CC[C@]12C)C(C)C [beta sitosterol],beta sitosterol soluble in triolein oil,[3]; linked as an ester to decanoic acid,1.1%
same,beta sitosterol soluble in triolein oil,[3]; linked as an ester to lauric acid,0.6%
same,beta sitosterol soluble in triolein oil,[3]; linked as an ester to palmitic acid,0.1%
CC(C)c1c(C(=O)Nc2ccccc2)c(-c2ccccc2)c(-c2ccc(F)cc2)n1CC[C@@H]1C[C@@H](O)CC(=O)O1 [atorvastatin lactone],affinity to CYP3A4 compared with the acid,CYP3A4,significantly higher affinity
same,"CYP-dependent metabolism to ortho-hydroxy metabolite, compared with atorvastatin acid",CYP3A4; human liver microsomes,20 fold
same,"CYP-dependent metabolism to para-hydroxy metabolite, compared with atorvastatin acid",CYP3A4; human liver microsomes,83 fold
